# Source: patent publication US5134137A, “Cephalosporin antibiotics” (The Upjohn Company, priority 1990, dated 1992)
# Read-outs that look alike come from different tables or passages of the source.
# What was measured:
# Assay type in all cases: cell-based
# Micrococcus luteus = assay: MIC, agar dilution, Micrococcus luteus; conditions: Micrococcus luteus; strain UC130; read-out: MIC
# Procedure: (§1) Stock solution of each test antibiotic compound were prepared to have a concentration of 2 mg. of the test compound per milliliter in sterile water of 0.1M ammonium acetate solution. The amount of each compound used was adjusted for base compound activity as calculated from the purity data for the selected batch of compound.
# (§2) The dilution procedure described by Washington and Sutter [Manual of Clinical Microbiology, 3rd, Edit. (Lennett, E. H. et al, Eds.), pp. 453-458 (1980), American Society for Microbiology, Washington, D.C.] was modified so that serial concentrations of 128 to 0.0625 microgram/ml. in sterile water was obtained. Then 1.5 ml. aliquots of these test antibiotic dilution mixtures are added to 13.5 molten (50° C.) Mueller-Hinton agar. Each resulting mixture is poured into 15×100 mm, sterile Petri plates and allowed to dry at room temperature overnight.
# (§3) Test bacterial cultures are maintained at -70° C. on glass beads. [See R. J. Yancey, Jr. et al, Amer. Jr. of Vet. Research, 48, No. 7, pp. 1050-1053, (1987)]. At least one bacteria-laden bead per culture is dropped into one ml. of brain heart infusion (BHI) broth for overnight culture at 37° C. in 5% V/V carbon dioxide in air atmosphere.
# (§4) On the data of assay, 2 to 8 drops of the bacterial broth cultures are transferred to fresh BHI broth (1 ml.) and the mixture is incubated for 4 to 6 hours at 37° C. in a 5% V/V carbon dioxide in air atmosphere. The resulting cultures are then diluted to match a 0.5 MacFarland standard and further diluted 1:20 V/V with sterile saline solution.
# (§5) A 0.001 ml. drop of the resulting mixture, containing approximately 10^3 to 10^4 colony forming units (CFU) of each test bacteria organism, is dispensed onto the surface of the test antibiotic compound test plates with a Steer's type replicator. The resulting innoculated plates are incubated 16 to 18 hours at 37° C. with a carbon dioxide atmosphere.
# as §1, with “Stock solutions” for “Stock solution”
# as §2, with “mm.” for “mm,”
# as §2, with “for Microbiology.” for “for Microbiology,”, “15×100 mm.” for “15×100 mm,”
# as §3, with “culture” for “cultures”
# (§6) On the day of assay, 2 to 8 drops of the bacterial broth cultures are transferred to fresh BHI broth (1 ml.) and the mixture is incubated for 4 to 6 hours at 37° C. in a 5% V/V carbon dioxide in air atmosphere. […]
# Corynebacterium pyogenes = assay: MIC, agar dilution, Corynebacterium pyogenes; conditions: strain 213-2; read-out: MIC
# Procedure: as §1, §2, §3, §4, §5
# as §1, with “Stock solutions” for “Stock solution”
# as §2, with “mm.” for “mm,”
# as §2, with “for Microbiology.” for “for Microbiology,”, “15×100 mm.” for “15×100 mm,”
# as §3, with “culture” for “cultures”
# as §6
# Staphylococcus aureus = assay: MIC, agar dilution, Staphylococcus aureus; conditions: Staphylococcus aureus, read-out: MIC
# Procedure: as §1, §2, §3, §4, §5
# as §1, with “Stock solutions” for “Stock solution”
# as §2, with “mm.” for “mm,”
# as §2, with “for Microbiology.” for “for Microbiology,”, “15×100 mm.” for “15×100 mm,”
# as §3, with “culture” for “cultures”
# as §6
# Salmonella typhimurium = assay: MIC, agar dilution, Salmonella typhimurium; conditions: Salmonella enterica, read-out: MIC
# Procedure: as §1, §2, §3, §4, §5
# as §1, with “Stock solutions” for “Stock solution”
# as §2, with “mm.” for “mm,”
# as §2, with “for Microbiology.” for “for Microbiology,”, “15×100 mm.” for “15×100 mm,”
# as §3, with “culture” for “cultures”
# as §6
# Escherichia coli = assay: MIC, agar dilution, Escherichia coli; conditions: Escherichia coli, read-out: MIC
# Procedure: as §1, §2, §3, §4, §5
# as §1, with “Stock solutions” for “Stock solution”
# as §2, with “mm.” for “mm,”
# as §2, with “for Microbiology.” for “for Microbiology,”, “15×100 mm.” for “15×100 mm,”
# as §3, with “culture” for “cultures”
# as §6
# Pseudomonas aeruginosa = assay: MIC, agar dilution, Pseudomonas aeruginosa; conditions: Pseudomonas aeruginosa, ATCC27853; strain ATCC 27853; read-out: MIC
# Procedure: as §1, §2, §3, §4, §5
# as §1, with “Stock solutions” for “Stock solution”
# as §2, with “mm.” for “mm,”
# as §2, with “for Microbiology.” for “for Microbiology,”, “15×100 mm.” for “15×100 mm,”
# as §3, with “culture” for “cultures”
# as §6
# Streptococcus suis = assay: MIC, agar dilution, Streptococcus suis; conditions: Streptococcus suis; strain 650-2; read-out: MIC
# Procedure: as §1, §2, §3, §4, §5
# as §1, with “Stock solutions” for “Stock solution”
# as §2, with “mm.” for “mm,”
# as §2, with “for Microbiology.” for “for Microbiology,”, “15×100 mm.” for “15×100 mm,”
# as §3, with “culture” for “cultures”
# as §6
# Pasteurella multocida = assay: MIC, agar dilution, Pasteurella multocida; conditions: Pasteurella multocida; strain UC9581; read-out: MIC
# Procedure: as §1, §2, §3, §4, §5
# as §1, with “Stock solutions” for “Stock solution”
# as §2, with “mm.” for “mm,”
# as §2, with “for Microbiology.” for “for Microbiology,”, “15×100 mm.” for “15×100 mm,”
# as §3, with “culture” for “cultures”
# as §6
# Pasteurella hemolytica = assay: MIC (minimum inhibitory concentration), agar dilution, Pasteurella hemolytica; conditions: Pasteurella, read-out: MIC
# Procedure: as §1, §2, §3, §4, §5
# as §1, with “Stock solutions” for “Stock solution”
# as §2, with “mm.” for “mm,”
# as §2, with “for Microbiology.” for “for Microbiology,”, “15×100 mm.” for “15×100 mm,”
# as §3, with “culture” for “cultures”
# as §6
# Enterococcus faecalis = assay: MIC, agar dilution, Enterococcus faecalis; conditions: Enterococcus faecalis; strain UC694; read-out: MIC
# Procedure: as §1, with “Stock solutions” for “Stock solution”
# as §2, §3, §4, §5, §1
# as §2, with “mm.” for “mm,”
# as §2, with “for Microbiology.” for “for Microbiology,”, “15×100 mm.” for “15×100 mm,”
# as §3, with “culture” for “cultures”
# as §6
# [1] = system: Streptococcus dysgalactiae; assay: MIC, agar dilution, Streptococcus dysgalactiae; conditions: Streptococcus dysgalactiae; strain UC251; read-out: MIC
# Procedure: as §1, §2, §3, §4, §5
# as §1, with “Stock solutions” for “Stock solution”
# as §2, with “mm.” for “mm,”
# as §2, with “for Microbiology.” for “for Microbiology,”, “15×100 mm.” for “15×100 mm,”
# as §3, with “culture” for “cultures”
# as §6
# Streptococcus agalactiae = assay: MIC, agar dilution, Streptococcus agalactiae; conditions: Streptococcus agalactiae, read-out: MIC
# Procedure: as §1, §2, §3, §4, §5
# as §1, with “Stock solutions” for “Stock solution”
# as §2, with “mm.” for “mm,”
# as §2, with “for Microbiology.” for “for Microbiology,”, “15×100 mm.” for “15×100 mm,”
# as §3, with “culture” for “cultures”
# as §6
# Salmonella choleraesuis = assay: MIC, agar dilution, Salmonella choleraesuis; conditions: Salmonella enterica, read-out: MIC
# Procedure: as §1, §2, §3, §4, §5
# as §1, with “Stock solutions” for “Stock solution”
# as §2, with “mm.” for “mm,”
# as §2, with “for Microbiology.” for “for Microbiology,”, “15×100 mm.” for “15×100 mm,”
# as §3, with “culture” for “cultures”
# as §6
# [2] = system: Bordetella bronchiseptica; assay: MIC, agar dilution, Bordetella bronchiseptica; conditions: Bordetella bronchiseptica; strain UC6313; read-out: MIC
# Procedure: as §1, §2, §3, §4, §5
# as §1, with “Stock solutions” for “Stock solution”
# as §2, with “mm.” for “mm,”
# as §2, with “for Microbiology.” for “for Microbiology,”, “15×100 mm.” for “15×100 mm,”
# as §3, with “culture” for “cultures”
# as §6
# Streptococcus uberis = assay: MIC, agar dilution, Streptococcus uberis; conditions: Streptococcus uberis, read-out: MIC
# Procedure: as §1, §2, §3, §4, §5
# as §1, with “Stock solutions” for “Stock solution”
# as §2, with “mm.” for “mm,”
# as §2, with “for Microbiology.” for “for Microbiology,”, “15×100 mm.” for “15×100 mm,”
# as §3, with “culture” for “cultures”
# as §6
# Enterococcus faecium = assay: MIC, agar dilution, Enterococcus faecium; conditions: Enterococcus faecium; strain UC241; read-out: MIC
# Procedure: as §1, with “Stock solutions” for “Stock solution”
# as §2, §3, §4, §5, §1
# as §2, with “mm.” for “mm,”
# as §2, with “for Microbiology.” for “for Microbiology,”, “15×100 mm.” for “15×100 mm,”
# as §3, with “culture” for “cultures”
# as §6
# Streptococcus bovis = assay: MIC, agar dilution, Streptococcus bovis; conditions: Streptococcus equinus; strain UC6281; read-out: MIC
# Procedure: as §1, §2, §3, §4, §5
# as §1, with “Stock solutions” for “Stock solution”
# as §2, with “mm.” for “mm,”
# as §2, with “for Microbiology.” for “for Microbiology,”, “15×100 mm.” for “15×100 mm,”
# as §3, with “culture” for “cultures”
# as §6
# [3] = TYPHIMURIUM / UC6162, strain UC6162
# [4] = TYPHIMURIUM / UC6164, strain UC6164
# [5] = CHOLERAESUIS / UC6073, strain UC6073
# [6] = CHOLERAESUIS / UC6077, strain UC6077
MIC (Micrococcus luteus) [µg/mL],MIC (Corynebacterium pyogenes) [µg/mL],MIC (Staphylococcus aureus; strain UC6093) [µg/mL],MIC (Staphylococcus aureus; strain UC6097) [µg/mL],MIC (Staphylococcus aureus; strain UC9203) [µg/mL],MIC (Salmonella typhimurium; [3]) [µg/mL],MIC (Salmonella typhimurium; [4]) [µg/mL],MIC (Escherichia coli; strain UC3784) [µg/mL],MIC (Escherichia coli; strain UC6720) [µg/mL],MIC (Escherichia coli; strain UC9670) [µg/mL],MIC (Pseudomonas aeruginosa) [µg/mL],MIC (Streptococcus suis) [µg/mL],MIC (Pasteurella multocida) [µg/mL],MIC (Enterococcus faecalis) [µg/mL],MIC [1] [µg/mL],MIC (Streptococcus agalactiae; strain UC3947) [µg/mL],MIC (Streptococcus agalactiae; strain UC6892) [µg/mL],Structure (SMILES),MIC (Pasteurella hemolytica; strain UC6531) [µg/mL],MIC (Pasteurella hemolytica; strain UC6532) [µg/mL],MIC (Pasteurella hemolytica; strain UC9582) [µg/mL],further results
≤ 0.06,0.13,1,2,1,16,8,4,8,4,> 32,≤ 0.06,1,> 32,≤ 0.06,≤ 0.06,≤ 0.06,CO/N=C(\C(=O)N[C@@H]1C(=O)N2C(C(=O)O)=C(CSSCc3ccco3)CS[C@H]12)c1csc(N)n1 [Example 16],0.25,0.13,0.13,MIC (Salmonella choleraesuis; [5]): 16 µg/mL; MIC (Salmonella choleraesuis; [6]): 32 µg/mL; MIC [2]: > 32 µg/mL; MIC (Streptococcus uberis; strain UC3946): ≤ 0.06 µg/mL; MIC (Streptococcus uberis; strain UC6159): 4 µg/mL; MIC (Enterococcus faecium): > 32 µg/mL; MIC (Streptococcus bovis): ≤ 0.06 µg/mL
≤ 0.06,≤ 0.06,4,2,2,4,4,2,4,8,> 32,≤ 0.06,≤ 0.06,> 32,≤ 0.06,≤ 0.06,≤ 0.06,CO/N=C(\C(=O)N[C@@H]1C(=O)N2C(C(=O)O)=C(CSSc3ccc(Cl)cc3)CS[C@H]12)c1csc(N)n1 [Example 17],≤ 0.06,0.13,0.13,MIC (Salmonella choleraesuis; [5]): 8 µg/mL; MIC (Salmonella choleraesuis; [6]): 8 µg/mL; MIC [2]: > 32 µg/mL; MIC (Streptococcus uberis; strain UC3946): ≤ 0.06 µg/mL; MIC (Streptococcus uberis; strain UC6159): 4 µg/mL; MIC (Enterococcus faecium): > 32 µg/mL; MIC (Streptococcus bovis): ≤ 0.06 µg/mL
